Source: the NIST ThermoML archive (doi:10.1021/je400803f)

Assay: xn = mol fraction of the nth substance listed
Conditions: 101 kPa, Liquid, Vibrating tube method

CCCC[N+]1(C)CCCC1.FC(F)(F)C(F)(F)[P-](F)(F)(F)(C(F)(F)C(F)(F)F)C(F)(F)C(F)(F)F + CNC=O
mass density [kg/m3]
Conditions | 293.15 K | 298.15 K | 303.15 K | 308.15 K | 313.15 K | 318.15 K | 323.15 K
x1 = 0.017 | 1058.37 | 1053.77 | 1049.14 | 1044.53 | 1039.79 | 1035.11 | 1030.3
x1 = 0.038 | 1115.08 | 1110.31 | 1105.47 | 1100.72 | 1095.79 | 1091 | 1085.98
x1 = 0.064 | 1172.33 | 1167.39 | 1162.43 | 1157.5 | 1152.45 | 1147.53 | 1142.27
x1 = 0.1395 | 1288.62 | 1283.34 | 1278.09 | 1272.85 | 1267.61 | 1262.38 | 1256.78
x1 = 0.1994 | 1349.8 | 1344.44 | 1339.03 | 1333.6 | 1328.11 | 1322.58 | 1317.13
x1 = 0.2991 | 1419.35 | 1413.93 | 1408.4 | 1402.86 | 1397.22 | 1391.56 | 1385.88
x1 = 0.4005 | 1466.49 | 1460.95 | 1455.39 | 1449.79 | 1444.2 | 1438.48 | 1432.75
x1 = 0.5044 | 1501.13 | 1495.58 | 1490.07 | 1484.49 | 1478.87 | 1473.25 | 1467.48
x1 = 0.5964 | 1524.64 | 1519.12 | 1513.49 | 1507.92 | 1502.28 | 1496.79 | 1491.13
x1 = 0.6471 | 1535.54 | 1530.04 | 1524.39 | 1518.85 | 1513.18 | 1507.72 | 1502.01
x1 = 0.7548 | 1555.34 | 1549.77 | 1544.13 | 1538.58 | 1532.92 | 1527.43 | 1521.8
x1 = 0.8413 | 1568.65 | 1563.05 | 1557.45 | 1551.88 | 1546.25 | 1540.73 | 1535.12
x1 = 0.9029 | 1577.04 | 1571.47 | 1565.91 | 1560.34 | 1554.73 | 1549.18 | 1543.58
